Two molecules from patent US9497963B2, “Methods and compositions for control of gypsy moth, Lymantria dispar” (Simon Fraser University, priority 2008, dated 2016) can be followed below.

In assay [1] the test system is male gypsy moth antenna. The assay can be described thus: EAG effects of 3c{1,3} with (+)-disparlure at different ratios (Example 14). Further details: species or system Lymantria dispar. The settings on record: for STI (short-term inhibition): mixture relative to first puff of pure (+)-disparlure. The source says:
The compound has the following effects in the EAG at the following ratios: […]

The test system of assay [2] is male gypsy moth antenna. As to the kind of experiment: EAG dose response and ratio tests of (+)-disparlure:3c{1,3} (Example 16). Further details: species or system Lymantria dispar. The settings on record: (+)-disparlure:compound ratios about 1:300 to about 1:2000 or greater. How it is done:
Dose response and ratio tests were done at each of the following (+)-disparlure concentrations: 1 ng, 10 ng, 50 ng, 100 ng, 500 ng and 1000 ng, the following ratios of (+)-disparlure:3c{1,3} were tested: 1:100, 1:300, 1:500, 1:700, 1:1000, 1:1500 and 1:2000 (FIG. 19).

A further assay has as its system gypsy moth sensillum. As to the kind of experiment: Single sensillum recordings. Details: species or system Lymantria dispar. The settings on record: (+)-disparlure and compound mixed 1:1000.
In the next assay the test system is moths. As to the kind of experiment: Simple behavioural tests (films of moths exposed to puffs). Type of assay: in vivo, Lymantria dispar. The settings on record: (+)-disparlure:compound 1:1000 vs pheromone alone.
For assay [3], the system named is male gypsy moth antenna response to odorants other than (+)-1. As to the kind of experiment: Long-term inhibition of responses to other pheromone and host plant odorants, EAG (Example 8, first objective). Details: species or system Lymantria dispar. The settings on record: antagonist 100 μg. How it is done:
To determine whether the long-term inhibitory effects of 3c{2,3} and DEET are specific to (+)-1 or also apply to other odorants, compound 3c{2,3} and DEET were tested further with other odorants: (−)-1, racemic 1, dispar alkene, methyl eugenol and 1-hexanol.
These included (−)-1, racemic 1, dispar alkene (the alkene corresponding to the carbon framework of 1), methyl eugenol (a characteristic oak wood odorant) and 1-hexanol (a green leaf volatile, shown previously to be detected by gypsy moth antennae). For the pure odorant puffs, (−)-1 and racemic 1 were administered at 100 ng/cartridge, the alkene, methyl eugenol was administered at 1 μg/cartridge and 1-hexanol was administered at 100 μg/cartridge. The antagonists were both administered at 100 μg/cartridge, mixed with the appropriate dose of the odorant. The puff order was: i) air, ii) pure odorant, iii) odorant+antagonist, iv) pure odorant. All puffs were corrected for the air response as in Eq. 1. STI values were obtained from the depolarization […]. LTI values were obtained by comparing the depolarization of puff iv relative to that of puff ii.

Assay [4] has as its system male gypsy moth antennae response to pheromone (+)-1 with plant odors. The assay can be described thus: Effect on mixed pheromone/plant odorant stimulus, EAG (Example 8, second objective). Further details: species or system Lymantria dispar. How it is done:
A second objective for this experiment was to determine whether the oak volatiles, methyl eugenol and 1-hexanol, can enhance the antennal response to (+)-1 and whether the mixed pheromone/plant odorant stimulus can be inhibited by compound 3c{2,3} or DEET. The puff order was: i) air, ii) pure (+)-1 (100 ng), iii) (+)-1 (100 ng) and plant odorant (1 μg for methyl eugenol and 100 μg for 1-hexanol), iv) (+)-1 and plant odorant as in iii+antagonist (100 μg), v) same as in iii. Depolarizations were corrected for the air response as in Eq. 1 and the short-term effects were calculated for puff iii relative to puff ii, and for puff iv relative to puff ii. Long-term effects were calculated for puff v relative to puff iii (for LTI of the mixed pheromone/plant odorant plume) and for puff v relative to puff ii (to determine whether long-term effects of the plant odorant and of the antagonist cancel).

Where [5] appears, read: odorant racemic disparlure 100 ng.
Where [6] appears, read: plant synergist 1-hexanol 100 μg.
[7] abbreviates: plant synergist methyl eugenol 1 μg.

As to `CCCOc1ccc(OC)cc1` [3c{1,3}, 1-methoxy-4-propoxy-benzene], the “STI (short-term inhibition)” value with male gypsy moth antenna [1] (100 ng (+)-disparlure + 1 μg 3c{1,3}, ratio 1:10 by mass) is on record as 28 ± 16 (6); with male gypsy moth antenna [1] (100 ng (+)-disparlure + 10 μg 3c{1,3}, ratio 1:100 by mass), −2 ± 5 (6); with male gypsy moth antenna [1] (100 ng (+)-disparlure + 100 μg 3c{1,3}, ratio 1:1000 by mass) it was 48 ± 14 (6). In addition, in the assay with male gypsy moth antenna [1] ((+)-disparlure puff immediately after last mixed puff (1:1000 ratio), relative to first (+)-disparlure reference puff), the “LTI (long-term inhibition)” value is recorded as 39 ± 12 (6). The “EAG depolarization shape (in words)” value with male gypsy moth antenna [2] is given as “increasingly broad depolarizations”. Also, the “enhancement of neuronal activity” value in the assay on gypsy moth sensillum is reported as “significant”. Moreover, the “behaviour of moths exposed to puffs” value in the assay with moths is “excited and violently flap their wings much longer”.

For the molecule `CCCOc1ccc(OCC)cc1` [3c{2,3}, 1-ethoxy-4-propoxy benzene], the “long-term activity (%)” value in assay [3] (odorant 1-hexanol 100 μg) is given as 29 ± 18%; in assay [3] (odorant (−)-disparlure 100 ng) it was 43 ± 12%; in assay [3] (odorant dispar alkene 1 μg), 39 ± 12%; in assay [3] (odorant methyl eugenol 1 μg) it was 46 ± 24%; in assay [3] (setting [5]), 69 ± 5%. The “short-term activity (%)” value in assay [3] (odorant 1-hexanol 100 μg) is recorded as −34 ± 28%; in assay [3] (odorant dispar alkene 1 μg) it was −244 ± 15%; in assay [3] (setting [5]), −154 ± 45%. In addition, the “short-term effect with plant synergist + antagonist” value was −99 ± 60 (5) in assay [4] ((+)-1 100 ng + 1-hexanol 100 μg + antagonist 100 μg) and −125 ± 95 (4) in assay [4] ((+)-1 100 ng + methyl eugenol 1 μg + antagonist 100 μg). Besides, the “long-term effect on (+)-1 response” value in assay [4] (setting [6]) is listed as 20 ± 18 (5); in assay [4] (setting [7]), 12 ± 33 (4). The “long-term effect on the mixed (+)-1/plant odor plumes” value in assay [4] (setting [6]) is reported as 5 ± 24 (5); in assay [4] (setting [7]), 11 ± 47 (4).
